Reference: patent US20170190671A1, “BIS(ARYL)CATECHOL DERIVATIVES AS HERBICIDES” (E I DU PONT DE NEMOURS AND COMPANY, priority 2014, published 2017)

Legend:
Assay in all cases: Test C postemergence
Assay type in all cases: in vivo
[1] = tested on: barnyardgrass (Echinochloa crus-galli); details: Echinochloa crus-galli, post-emergence, Postemergence, scale 0 to 100, read-out: Plant response rating, Barnyardgrass
Procedure, shortened: (§1)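 Treatment is preemergence to seeds in a loam and sand soil, or postemergence to plants 2 to 18 cm high in a peat moss-based medium. The compound is delivered in a non-phytotoxic solvent mixture including surfactant. Effects are judged by eye 13 to 15 days later on a 0 to 100 scale.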

[2] = tested on: blackgrass (Alopecurus myosuroides); details: Alopecurus myosuroides, post-emergence, 336 h, Postemergence, scale 0 to 100, read-out: Plant response rating, Blackgrass
Procedure, shortened: as §1

[3] = tested on: chickweed (common chickweed, Stellaria media); details: Stellaria media, post-emergence, Postemergence, scale 0 to 100, read-out: Plant response rating, Chickweed
Procedure, shortened: as §1

corn (Zea mays) = details: Zea mays, post-emergence, 336 h, Postemergence, scale 0 to 100
Procedure, shortened: as §1

[4] = tested on: galium (catchweed bedstraw, Galium aparine); details: Galium, post-emergence, 336 h, Postemergence, scale 0 to 100, read-out: Plant response rating, Galium
Procedure, shortened: as §1

[5] = tested on: giant foxtail (Setaria faberii); details: Setaria faberi, post-emergence, 336 h, Postemergence, scale 0 to 100, read-out: Plant response rating, Foxtail, Giant
Procedure, shortened: as §1

[6] = tested on: johnsongrass (Sorghum halepense); details: Sorghum halepense, post-emergence, 336 h, Postemergence, scale 0 to 100, read-out: Plant response rating, Johnsongrass
Procedure, shortened: as §1

kochia (Kochia scoparia) = details: Bassia scoparia, post-emergence, Postemergence, scale 0 to 100, read-out: Plant response rating, Kochia
Procedure, shortened: as §1

[7] = tested on: lambsquarters (Chenopodium album); details: Chenopodium album, post-emergence, 336 h, Postemergence, scale 0 to 100, read-out: Plant response rating, Lambsquarters
Procedure, shortened: as §1

[8] = tested on: large (Lg) crabgrass (Digitaria sanguinalis); details: Digitaria sanguinalis, post-emergence, 336 h, Postemergence, scale 0 to 100, read-out: Plant response rating, Crabgrass, Large
Procedure, shortened: as §1

[9] = tested on: morningglory (Ipomoea coccinea); details: Ipomoea, post-emergence, 336 h, Postemergence, scale 0 to 100, read-out: Plant response rating, Morningglory
Procedure, shortened: as §1

[10] = tested on: oilseed rape (Brassica napus); details: Brassica napus, post-emergence, Postemergence, scale 0 to 100, read-out: Plant response rating, Oilseed Rape
Procedure, shortened: as §1

[11] = tested on: pigweed (Amaranthus retroflexus); details: Amaranthus retroflexus, post-emergence, 336 h, Postemergence, scale 0 to 100, read-out: Plant response rating, Pigweed
Procedure, shortened: as §1

[12] = tested on: ragweed (common ragweed, Ambrosia elatior); details: Ambrosia artemisiifolia, post-emergence, 336 h, Postemergence, scale 0 to 100, read-out: Plant response rating, Ragweed
Procedure, shortened: as §1

soybean (Glycine max) = details: Glycine max, post-emergence, Postemergence, scale 0 to 100, read-out: Plant response rating, Soybean
Procedure, shortened: as §1

[13] = tested on: velvetleaf (Abutilon theophrasti); details: Abutilon theophrasti, post-emergence, Postemergence, scale 0 to 100, read-out: Plant response rating, Velvetleaf
Procedure, shortened: as §1

[14] = tested on: waterhemp (common waterhemp, Amaranthus rudis); details: Amaranthus tuberculatus, post-emergence, Postemergence, scale 0 to 100, read-out: Plant response rating, Waterhemp
Procedure, shortened: as §1

[15] = tested on: winter wheat (Triticum aestivum); details: Triticum aestivum, post-emergence, 336 h, Postemergence, scale 0 to 100, read-out: Plant response rating, Wheat
Procedure, shortened: as §1

[16] = tested on: yellow nutsedge (Cyperus esculentus); details: Cyperus, post-emergence, 336 h, Postemergence, scale 0 to 100, read-out: Plant response rating, Nutsedge, Yellow
Procedure, shortened: as §1

SMILES: N#Cc1cccc(Oc2ncc(Cl)cn2)c1Oc1ccc(Cl)cc1 [Compound 36]
- pest or weed control at 16 g/ha ([1]; 16 g ai/ha): 10%
- pest or weed control at 31 g/ha ([1]; 31 g ai/ha): 10%
- pest or weed control at 62 g/ha ([1]; 62 g ai/ha): 15%
- pest or weed control at 125 g/ha ([1]; 125 g ai/ha): 20%
- pest or weed control at 16 g/ha ([2]; 16 g ai/ha): 5%
- pest or weed control at 31 g/ha ([2]; 31 g ai/ha): 5%
- pest or weed control at 62 g/ha ([2]; 62 g ai/ha): 30%
- pest or weed control at 125 g/ha ([2]; 125 g ai/ha): 30%
- pest or weed control at 16 g/ha ([3]; 16 g ai/ha): 70%
- pest or weed control at 31 g/ha ([3]; 31 g ai/ha): 75%
- pest or weed control at 62 g/ha ([3]; 62 g ai/ha): 80%
- pest or weed control at 125 g/ha ([3]; 125 g ai/ha): 100%
- Corn plant response rating (crop injury, 0 = no effect, 100 = complete kill) at 16 g/ha (corn (Zea mays); 16 g ai/ha): 10%
- Corn plant response rating (crop injury, 0 = no effect, 100 = complete kill) at 31 g/ha (corn (Zea mays); 31 g ai/ha): 15%
- Corn plant response rating (crop injury, 0 = no effect, 100 = complete kill) at 62 g/ha (corn (Zea mays); 62 g ai/ha): 20%
- Corn plant response rating (crop injury, 0 = no effect, 100 = complete kill) at 125 g/ha (corn (Zea mays); 125 g ai/ha): 20%
- pest or weed control at 16 g/ha ([4]; 16 g ai/ha): 80%
- pest or weed control at 31 g/ha ([4]; 31 g ai/ha): 80%
- pest or weed control at 62 g/ha ([4]; 62 g ai/ha): 95%
- pest or weed control at 125 g/ha ([4]; 125 g ai/ha): 95%
- pest or weed control at 16 g/ha ([5]; 16 g ai/ha): 5%
- pest or weed control at 31 g/ha ([5]; 31 g ai/ha): 5%
- pest or weed control at 62 g/ha ([5]; 62 g ai/ha): 10%
- pest or weed control at 125 g/ha ([5]; 125 g ai/ha): 10%
- pest or weed control at 16 g/ha ([6]; 16 g ai/ha): 20%
- pest or weed control at 31 g/ha ([6]; 31 g ai/ha): 30%
- pest or weed control at 62 g/ha ([6]; 62 g ai/ha): 35%
- pest or weed control at 125 g/ha ([6]; 125 g ai/ha): 35%
- pest or weed control at 16 g/ha (kochia (Kochia scoparia); 16 g ai/ha): 90%
- pest or weed control at 31 g/ha (kochia (Kochia scoparia); 31 g ai/ha): 95%
- pest or weed control at 62 g/ha (kochia (Kochia scoparia); 62 g ai/ha): 95%
- pest or weed control at 125 g/ha (kochia (Kochia scoparia); 125 g ai/ha): 100%
- pest or weed control at 16 g/ha ([7]; 16 g ai/ha): 90%
- pest or weed control at 31 g/ha ([7]; 31 g ai/ha): 95%
- pest or weed control at 62 g/ha ([7]; 62 g ai/ha): 98%
- pest or weed control at 125 g/ha ([7]; 125 g ai/ha): 100%
- pest or weed control at 16 g/ha ([8]; 16 g ai/ha): 5%
- pest or weed control at 31 g/ha ([8]; 31 g ai/ha): 10%
- pest or weed control at 62 g/ha ([8]; 62 g ai/ha): 10%
- pest or weed control at 125 g/ha ([8]; 125 g ai/ha): 20%
- pest or weed control at 31 g/ha ([9]; 31 g ai/ha): 60%
- pest or weed control at 62 g/ha ([9]; 62 g ai/ha): 65%
- pest or weed control at 125 g/ha ([9]; 125 g ai/ha): 70%
- plant injury at 31 g/ha ([10]; 31 g ai/ha): 85%
- plant injury at 62 g/ha ([10]; 62 g ai/ha): 90%
- plant injury at 125 g/ha ([10]; 125 g ai/ha): 98%
- pest or weed control at 31 g/ha ([11]; 31 g ai/ha): 90%
- pest or weed control at 62 g/ha ([11]; 62 g ai/ha): 98%
- pest or weed control at 125 g/ha ([11]; 125 g ai/ha): 100%
- pest or weed control at 31 g/ha ([12]; 31 g ai/ha): 45%
- pest or weed control at 62 g/ha ([12]; 62 g ai/ha): 40%
- pest or weed control at 125 g/ha ([12]; 125 g ai/ha): 75%
- plant injury at 31 g/ha (soybean (Glycine max); 31 g ai/ha): 25%
- plant injury at 62 g/ha (soybean (Glycine max); 62 g ai/ha): 50%
- plant injury at 125 g/ha (soybean (Glycine max); 125 g ai/ha): 45%
- pest or weed control at 31 g/ha ([13]; 31 g ai/ha): 45%
- pest or weed control at 62 g/ha ([13]; 62 g ai/ha): 70%
- pest or weed control at 125 g/ha ([13]; 125 g ai/ha): 80%
- pest or weed control at 31 g/ha ([14]; 31 g ai/ha): 90%
- pest or weed control at 62 g/ha ([14]; 62 g ai/ha): 100%
- pest or weed control at 125 g/ha ([14]; 125 g ai/ha): 98%
- plant injury at 31 g/ha ([15]; 31 g ai/ha): 0%
- plant injury at 62 g/ha ([15]; 62 g ai/ha): 0%
- plant injury at 125 g/ha ([15]; 125 g ai/ha): 5%
- pest or weed control at 31 g/ha ([16]; 31 g ai/ha): 5%
- pest or weed control at 62 g/ha ([16]; 62 g ai/ha): 10%
- pest or weed control at 125 g/ha ([16]; 125 g ai/ha): 15%
